Several values for one entry are separate records, joined by “and”; a condition that tells them apart may be missing. Identical values can stand only once.
Key:
[1] = target: T1, Serine/threonine-protein kinase TBK1 (Homo sapiens) (UniProt Q9UHD2); conditions: at 1 µM
T1 sequence (whole entry): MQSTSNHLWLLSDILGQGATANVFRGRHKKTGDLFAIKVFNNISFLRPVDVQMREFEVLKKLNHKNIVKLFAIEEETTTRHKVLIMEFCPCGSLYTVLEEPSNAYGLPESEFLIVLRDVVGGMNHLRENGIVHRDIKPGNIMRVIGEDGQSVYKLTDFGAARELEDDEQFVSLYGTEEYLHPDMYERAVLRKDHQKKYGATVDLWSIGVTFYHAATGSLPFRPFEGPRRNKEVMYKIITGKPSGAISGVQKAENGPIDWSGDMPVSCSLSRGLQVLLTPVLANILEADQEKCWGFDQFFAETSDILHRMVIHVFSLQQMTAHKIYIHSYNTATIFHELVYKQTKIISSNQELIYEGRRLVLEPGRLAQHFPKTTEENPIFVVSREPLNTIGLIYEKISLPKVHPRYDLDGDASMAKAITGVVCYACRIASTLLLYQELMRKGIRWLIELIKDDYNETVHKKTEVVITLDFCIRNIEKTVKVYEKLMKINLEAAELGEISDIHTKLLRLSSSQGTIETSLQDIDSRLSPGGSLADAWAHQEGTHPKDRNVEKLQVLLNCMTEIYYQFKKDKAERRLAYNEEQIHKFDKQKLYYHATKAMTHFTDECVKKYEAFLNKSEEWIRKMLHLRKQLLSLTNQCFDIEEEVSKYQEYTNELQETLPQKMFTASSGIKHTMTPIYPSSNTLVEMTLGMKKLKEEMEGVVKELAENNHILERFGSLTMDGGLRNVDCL

[2] = target: T2, Inhibitor of nuclear factor kappa-B kinase subunit alpha (Homo sapiens) (UniProt O15111); conditions: at 1 µM
T2 sequence (whole entry): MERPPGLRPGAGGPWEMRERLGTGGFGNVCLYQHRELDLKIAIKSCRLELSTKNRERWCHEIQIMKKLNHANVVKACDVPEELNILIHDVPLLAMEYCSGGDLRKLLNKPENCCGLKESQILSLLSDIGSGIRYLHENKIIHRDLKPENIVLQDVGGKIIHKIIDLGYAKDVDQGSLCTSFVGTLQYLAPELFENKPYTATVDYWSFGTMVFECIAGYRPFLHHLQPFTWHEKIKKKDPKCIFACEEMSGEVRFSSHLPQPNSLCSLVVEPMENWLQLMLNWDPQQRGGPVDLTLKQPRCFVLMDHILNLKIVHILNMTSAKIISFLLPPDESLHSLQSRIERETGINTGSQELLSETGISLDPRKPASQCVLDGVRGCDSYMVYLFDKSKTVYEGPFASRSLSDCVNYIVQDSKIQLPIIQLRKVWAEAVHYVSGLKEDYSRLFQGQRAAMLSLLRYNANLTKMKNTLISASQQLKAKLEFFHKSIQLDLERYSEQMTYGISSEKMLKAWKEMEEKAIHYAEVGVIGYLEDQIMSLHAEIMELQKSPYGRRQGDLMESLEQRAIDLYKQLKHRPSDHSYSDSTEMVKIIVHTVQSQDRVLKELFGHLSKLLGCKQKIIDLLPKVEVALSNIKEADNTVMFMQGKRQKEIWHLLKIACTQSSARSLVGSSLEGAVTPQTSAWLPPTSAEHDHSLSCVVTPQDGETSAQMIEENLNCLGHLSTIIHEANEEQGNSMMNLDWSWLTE

[3] = target: T3, Tyrosine-protein kinase Mer (Homo sapiens) (UniProt Q12866); conditions: at 10 µM
T3 sequence (whole entry): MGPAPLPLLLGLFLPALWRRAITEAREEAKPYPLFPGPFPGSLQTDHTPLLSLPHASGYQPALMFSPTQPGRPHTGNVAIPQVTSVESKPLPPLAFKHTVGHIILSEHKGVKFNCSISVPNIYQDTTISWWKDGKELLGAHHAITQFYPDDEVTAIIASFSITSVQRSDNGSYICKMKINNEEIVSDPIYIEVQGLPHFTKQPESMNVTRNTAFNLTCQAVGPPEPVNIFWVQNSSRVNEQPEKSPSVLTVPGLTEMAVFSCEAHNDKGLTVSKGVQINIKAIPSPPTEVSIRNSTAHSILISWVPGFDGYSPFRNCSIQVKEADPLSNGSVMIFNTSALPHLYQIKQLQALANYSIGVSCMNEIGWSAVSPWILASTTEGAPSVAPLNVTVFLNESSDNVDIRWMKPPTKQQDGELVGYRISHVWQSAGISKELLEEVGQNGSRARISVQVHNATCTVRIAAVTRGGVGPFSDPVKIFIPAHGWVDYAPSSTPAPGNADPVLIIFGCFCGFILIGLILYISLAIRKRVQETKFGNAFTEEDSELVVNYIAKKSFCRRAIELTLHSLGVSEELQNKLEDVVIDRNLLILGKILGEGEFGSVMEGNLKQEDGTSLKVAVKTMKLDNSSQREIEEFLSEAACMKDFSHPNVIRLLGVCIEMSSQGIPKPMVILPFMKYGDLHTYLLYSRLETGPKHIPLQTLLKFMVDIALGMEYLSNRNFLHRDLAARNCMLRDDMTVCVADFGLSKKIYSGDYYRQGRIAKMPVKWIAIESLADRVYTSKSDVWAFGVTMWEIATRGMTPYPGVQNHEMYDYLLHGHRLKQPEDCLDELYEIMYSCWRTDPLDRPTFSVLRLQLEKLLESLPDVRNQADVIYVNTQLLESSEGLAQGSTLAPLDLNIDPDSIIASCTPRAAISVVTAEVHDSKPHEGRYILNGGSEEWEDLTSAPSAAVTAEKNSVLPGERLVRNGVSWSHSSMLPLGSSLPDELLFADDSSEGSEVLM

inhibition [1] | inhibition [2] | inhibition [3] [%] | SMILES
1% and 2% | 2% and -8% | 58 | Nc1ccc(C#Cc2cncnc2Nc2ccc(OCc3cccc(F)c3)c(Cl)c2)cc1
-6% | 0% and 1% | -1 | N#Cc1c(NC(=O)CN2CCOCC2)sc2c1CCCC2
-3% and -1% | 2% and -6% | 3 | CN(C)CCOc1ccc(-c2nc(-c3ccncc3)c(-c3ccc4c(c3)CC/C4=N\O)[nH]2)cc1
11% and 9% | -1% | 100 | O=C(O[C@H]1CN[C@H](C#Cc2cc3ncnc(Nc4ccc5c(ccn5Cc5cc(F)ccc5F)c4)c3s2)C1)N1CCOCC1
76% and 74% | 0% and -1% | 2 | CN(C)c1ccc2c(c1)/C(=C/Nc1ccc(S(N)(=O)=O)cc1)C(=O)N2
9% and 7% | 1% | 18 | O=C1NC(=O)C(c2ccccc2Cl)=C1Nc1cccc(O)c1
-4% and -1% | 5% | 0 | COc1ccc2cc(-c3c(-c4ccncc4)nc(-c4ccc(S(C)(=O)=O)cc4C)n3C)ccc2c1
58% and 55% | 3% and 4% | 99 | O=C1NC(=O)C(c2cccc(Cl)c2)=C1Nc1ccc(O)c(Cl)c1
3% and 1% | 1% | -4 | NC(=O)c1ccc2c(-c3ccnc(NCCCO)n3)c(-c3ccc(F)cc3)nn2c1
9% and 11% | -4% and -3% | 5 | CCCN1CCCC(c2ccc(Nc3nc(Nc4cc(F)ccc4C(N)=O)c4cc[nH]c4n3)c(OC)c2)C1 (stereo not drawn)
-2% and -1% | 5% and 4% | -1 | c1ccc(-c2n[nH]cc2-c2ccnc(-c3ccc(OCCN4CCOCC4)cc3)c2)nc1
-2% and 0% | 2% | 18 | CC1=C(C(=O)Nc2cc(Cl)c3[nH]ncc3c2)C(c2ccc(C(F)(F)F)cc2)CC(=O)N1 (stereo not drawn)
-2% and 0% | 4% and 5% | -2 | CC1=C(C(=O)Nc2ccc3[nH]ncc3c2)C(c2ccc(F)cc2)NC(=O)N1 (stereo not drawn)
37% and 33% | 2% and 14% | 39 | O=C(Nc1n[nH]c2nc(-c3ccc(O)cc3)c(Br)cc12)C1CC1
23% and 27% | 4% and 3% | 10 | O=C1Nc2ccccc2/C1=C/Nc1ccc(-n2cncn2)cc1
-3% and -6% | 4% and 0% | -6 | Cc1cc(O)cc(C)c1/C=C/c1cncc(C(N)=O)c1
3% | 10% and 11% | -2 | O=C1Nc2ccc(I)cc2C1=Cc1cc(Br)c(O)c(Br)c1
3% | 4% and 5% | -2 | Cc1cc(O)cc(C)c1/C=C/c1cncc(-c2nn[nH]n2)c1
49% | 2% and 1% | 2 | COc1ccc2c(-c3ccnc(Nc4cccc(OC(F)(F)F)c4)n3)cnn2n1
-6% and -5% | 3% and 7% | 3 | COc1ccc(CNC(=O)c2ccc(-c3cc(-c4nnc(C)o4)ccc3C)cc2)cc1

inhibition [1] | inhibition [2] | inhibition [3] [%] | SMILES
-2% and 2% | 1% | 13 | CCN(CC)S(=O)(=O)c1ccc(OC)c(Nc2ncc(-c3ccccc3)o2)c1
2% and 6% | 2% and 1% | 2 | CN(C)c1cc2c(Nc3ccc4nc(Cc5ccccc5)[nH]c4c3)ncnc2cn1
11% and 8% | 1% | -1 | CCS(=O)(=O)c1ccc(OC)c(Nc2ncc(-c3cccc(OC)c3)o2)c1
13% and 14% | 1% and 4% | 84 | COc1cccc(-n2ncc3c(N/N=C/c4ccncc4)ncnc32)c1
3% and 1% | 1% and 2% | -2 | FC(F)(F)c1cccc(-c2nn3ncccc3c2-c2ccnc(Nc3ccc4c(c3)OCCO4)n2)c1
1% | -2% and -3% | 38 | ON=C1CCc2cc(-c3nc(C4CCNCC4)[nH]c3-c3ccncc3)ccc21
1% and -2% | 2% | -6 | CS(=O)(=O)CCNCc1nc(-c2ccc3ncnc(Nc4ccc(F)c(Cl)c4)c3c2)cs1
45% and 44% | -5% | 79 | NC(=O)c1cccc(Nc2nccc(Nc3cccc4[nH]ncc34)n2)c1
2% and 6% | -3% and 4% | 6 | CCS(=O)(=O)c1ccc(OC)c(Nc2ncc(-c3ccccc3Cl)o2)c1
89% and 88% | 2% and 6% | -5 | NS(=O)(=O)c1ccc(NC=C2C(=O)Nc3ccc4ncsc4c32)cc1
1% and -2% | 2% and 3% | -4 | COc1ccc2ncnc(Nc3ccc(OCc4ccccc4)cc3)c2c1
0% and -2% | 0% | -4 | CCc1nn2ncccc2c1-c1ccnc(NC2CC2)n1
55% and 52% | 1% | -2 | CCOc1ccc2c(-c3ccnc(Nc4cccc(C(F)(F)F)c4)n3)cnn2n1
86% and 87% | 5% and 4% | -1 | O=C1Nc2ccc(C(=O)c3ccco3)cc2C1=Cc1cc(Cl)c(O)c(Cl)c1
-5% and 1% | 9% and 1% | -5 | Cc1ccc2c(-c3ccnc(Nc4ccc5c(c4)OCCO5)n3)c(-c3ccc(C(F)(F)F)cc3)nn2n1
31% and 38% | 1% and 2% | 0 | NS(=O)(=O)c1cccc(N/C=C2\C(=O)Nc3ccccc32)c1
-1% | 1% and -2% | 24 | N#Cc1ccc2c(-c3ccnc(NC4CC4)n3)c(-c3ccc(F)cc3)nn2c1
17% and 13% | 30% | 81 | CCn1c(-c2nonc2N)nc2cncc(C(=O)NCCNC)c21
2% and 3% | -4% | 10 | Fc1ccc(-c2c(-c3ccncc3)nc3n2CCS3)cc1
-6% and -7% | -6% | -1 | CC(=O)Nc1cccc(C#Cc2cncnc2Nc2ccc(OCc3cccc(F)c3)c(Cl)c2)c1

SMILES | inhibition [1] | inhibition [2] | inhibition [3] [%]
CNC(=O)Oc1cc(C)c(/C=C/c2cncc(C(=O)NC)c2)c(C)c1 | -1% | -3% and 5% | 48

Reference: ChEMBL document CHEMBL2007661, “Compounds: GSK PKIS; Assays: UNC Frye lab” (2012)
